From patent publication US12145925B2, “Phthalazine derivatives as inhibitors of PARP1, PARP2, and/or tubulin useful for the treatment of cancer” (THE REGENTS OF THE UNIVERSITY OF CALIFORNIA, priority 2016, dated 2024)
pIC50: −log10 of the molar value.

Target: T1, PARP2 (Homo sapiens, UniProt Q9UGN5)
T1 construct: purchased BPS Bioscience 80552
Assay: PARP2 enzymatic activity inhibition (BPS Bioscience PARP2 Assay Kit)
Type: biochemical
Settings: incorporation of biotinylated poly(ADP-ribose) onto histone proteins
Experimental: The half maximal inhibitory concentration (IC50) with respect to PARP2 inhibition was determined for each test compound by using BPS Bioscience PARP2 Assay Kit, according to the manufacturer's protocol (Cat #80552, San Diego, CA). This assay measures the incorporation of biotinylated poly(ADP-ribose) onto histone proteins in a 96-well strip well format. This assay is ideal for the determination of IC50 values of known or suspected PARP inhibitors. Briefly, stock solutions of each test compound were prepared in DMSO. Histone strip wells were incubated for 30 minutes at room temperature with 50 μl/well of 1×PARP Buffer to rehydrate the histones. Serial dilutions of either test compound were added to appropriate wells. Diluted PARP enzyme (0.5 Unit/well) was then added to the wells containing compounds, and incubated for 10 minutes at room temperature. […] Three types of control wells were also analyzed; i. A negative control without PARP was prepared to determine background absorbance. ii. […] The reactions were then stopped by adding 50 μl per well of 0.2M HCl or 5% Phosphoric Acid and read the absorbance at 450 nm. The IC50 values were determined by performing non-linear regression analysis fitting velocities and the logarithm of inhibitor concentrations to a sigmoidal dose response with a variable slope model using the GraphPad Prism 6.0 software. […]

T1 sequence (Q9UGN5 whole entry): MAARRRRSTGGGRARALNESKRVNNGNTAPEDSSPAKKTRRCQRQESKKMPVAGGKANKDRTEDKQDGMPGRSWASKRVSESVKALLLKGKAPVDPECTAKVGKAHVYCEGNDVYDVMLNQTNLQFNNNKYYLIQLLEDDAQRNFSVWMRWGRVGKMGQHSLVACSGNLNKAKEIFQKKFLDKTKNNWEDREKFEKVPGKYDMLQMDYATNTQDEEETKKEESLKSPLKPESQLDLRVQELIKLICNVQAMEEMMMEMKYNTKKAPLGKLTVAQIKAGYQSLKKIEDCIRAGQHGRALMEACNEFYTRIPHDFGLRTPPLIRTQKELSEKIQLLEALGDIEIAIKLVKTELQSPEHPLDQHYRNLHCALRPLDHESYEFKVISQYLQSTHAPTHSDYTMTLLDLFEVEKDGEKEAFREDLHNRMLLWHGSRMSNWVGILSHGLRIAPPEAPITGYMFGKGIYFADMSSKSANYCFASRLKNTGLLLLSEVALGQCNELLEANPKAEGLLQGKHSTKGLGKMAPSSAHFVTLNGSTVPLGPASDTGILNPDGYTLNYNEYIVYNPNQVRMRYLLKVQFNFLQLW

Q: With `COC(=O)Nc1nc2cc(-c3cc(Cc4n[nH]c(=O)c5ccccc45)ccc3F)ccc2[nH]1` [Ex 1.1, methyl (5-(2-fluoro-5-((4-oxo-3,4-dihydrophthalazin-1-yl)methyl)phenyl)-1H-benzimidazol-2-yl)carbamate] as the compound, how does the pIC50 read?
A: 10.30
